From the NIST ThermoML archive (doi:10.1016/j.jct.2005.11.003)
Numbers after ± are expanded uncertainties.

Experiments:
[1] = xn = mol fraction of the nth substance listed; details: 298.15 K, 101 kPa, Liquid
[2] = excess molar enthalpy (molar enthalpy of mixing); xn = mol fraction of the nth substance listed; details: 298.15 K, 101 kPa, Liquid
[3] = 298.15 K; 101.33 kPa; Liquid
[4] = refractive index (Na D-line) (dimensionless); details: 298.15 K; 101.33 kPa; Liquid

Question: Which results are given for `ClCCCCl` [1,3-dichloropropane] + CCCCOC=O?
Answer: mass density ([1]; x2 = 0.0501): 1161.72 ± 0.75 kg/m3; mass density ([1]; x2 = 0.101): 1144.33 ± 0.78 kg/m3; mass density ([1]; x2 = 0.1527): 1127.13 ± 0.81 kg/m3; mass density ([1]; x2 = 0.2078): 1109.19 ± 0.85 kg/m3; mass density ([1]; x2 = 0.2601): 1092.54 ± 0.89 kg/m3; mass density ([1]; x2 = 0.3145): 1075.53 ± 0.92 kg/m3; mass density ([1]; x2 = 0.3712): 1058.26 ± 0.96 kg/m3; mass density ([1]; x2 = 0.487): 1024.07 ± 1 kg/m3; mass density ([1]; x2 = 0.6083): 989.86 ± 1.1 kg/m3; mass density ([1]; x2 = 0.6701): 973.02 ± 1.2 kg/m3; mass density ([1]; x2 = 0.7342): 955.9 ± 1.2 kg/m3; mass density ([1]; x2 = 0.7984): 939.11 ± 1.3 kg/m3; mass density ([1]; x2 = 0.8657): 921.98 ± 1.3 kg/m3; mass density ([1]; x2 = 0.9315): 905.54 ± 1.4 kg/m3; excess molar enthalpy ([2]; x2 = 0.046): 0.00296 ± 0.000837 kcal/mol; excess molar enthalpy ([2]; x2 = 0.0992): 0.00421 ± 0.00086 kcal/mol; excess molar enthalpy ([2]; x2 = 0.1566): 0.00351 ± 0.00086 kcal/mol; excess molar enthalpy ([2]; x2 = 0.2391): 0.00153 ± 0.000789 kcal/mol; excess molar enthalpy ([2]; x2 = 0.2953): -0.00098 ± 0.000765 kcal/mol; excess molar enthalpy ([2]; x2 = 0.3467): -0.00392 ± 0.00086 kcal/mol; excess molar enthalpy ([2]; x2 = 0.3972): -0.00822 ± 0.001 kcal/mol; excess molar enthalpy ([2]; x2 = 0.4442): -0.013 ± 0.00115 kcal/mol; excess molar enthalpy ([2]; x2 = 0.4874): -0.0174 ± 0.00129 kcal/mol; excess molar enthalpy ([2]; x2 = 0.5293): -0.0205 ± 0.00139 kcal/mol; excess molar enthalpy ([2]; x2 = 0.5696): -0.0213 ± 0.00141 kcal/mol; excess molar enthalpy ([2]; x2 = 0.6134): -0.0219 ± 0.00141 kcal/mol; excess molar enthalpy ([2]; x2 = 0.6636): -0.0217 ± 0.00141 kcal/mol; excess molar enthalpy ([2]; x2 = 0.7143): -0.0213 ± 0.00141 kcal/mol; excess molar enthalpy ([2]; x2 = 0.7798): -0.0192 ± 0.00134 kcal/mol; excess molar enthalpy ([2]; x2 = 0.8596): -0.0142 ± 0.00117 kcal/mol; excess molar enthalpy ([2]; x2 = 0.9334): -0.00782 ± 0.00098 kcal/mol

Question: With `CCCCOC=O` [butyl methanoate] as the compound, how does the mass density [3] read?
Answer: The mass density was 888.17 ± 1.6 kg/m3.

Question: What about the refractive index [4] of the same compound?
Answer: The refractive index was 1.387 ± 0.0012.

Question: With `ClCCCl` [1,2-dichloroethane] + CCCCOC(C)=O as the compound, how does the mass density ([1]; x2 = 0.0359) read?
Answer: The mass density was 1223.55 ± 0.58 kg/m3.

Question: What about the mass density ([1]; x2 = 0.0733) of the same compound?
Answer: The mass density was 1201.71 ± 0.56 kg/m3.

Question: What about the mass density ([1]; x2 = 0.1139) of the same compound?
Answer: Its mass density is 1178.94 ± 0.55 kg/m3.

Question: What about the mass density ([1]; x2 = 0.1559) of the same compound?
Answer: Its mass density is 1156.86 ± 0.53 kg/m3.

Question: What about the mass density ([1]; x2 = 0.1988) of the same compound?
Answer: Its mass density is 1135.53 ± 0.53 kg/m3.

Question: And the mass density ([1]; x2 = 0.2456)?
Answer: Its mass density is 1113.51 ± 0.52 kg/m3.

Question: And the mass density ([1]; x2 = 0.2953)?
Answer: The mass density was 1091.52 ± 0.52 kg/m3.

Question: And the mass density ([1]; x2 = 0.3469)?
Answer: Its mass density is 1070.08 ± 0.52 kg/m3.

Question: What about the mass density ([1]; x2 = 0.4021) of the same compound?
Answer: The mass density was 1048.45 ± 0.52 kg/m3.

Question: And the mass density ([1]; x2 = 0.4599)?
Answer: The mass density was 1027.18 ± 0.53 kg/m3.

Question: And the mass density ([1]; x2 = 0.5233)?
Answer: Its mass density is 1005.31 ± 0.54 kg/m3.

Question: And the mass density ([1]; x2 = 0.5883)?
Answer: The mass density was 984.3 ± 0.56 kg/m3.

Question: What about the mass density ([1]; x2 = 0.6585) of the same compound?
Answer: The mass density was 963 ± 0.59 kg/m3.

Question: What about the mass density ([1]; x2 = 0.7344) of the same compound?
Answer: The mass density was 941.52 ± 0.63 kg/m3.

Question: And the mass density ([1]; x2 = 0.8173)?
Answer: The mass density was 919.59 ± 0.66 kg/m3.

Question: What about the mass density ([1]; x2 = 0.9013) of the same compound?
Answer: The mass density was 898.96 ± 0.7 kg/m3.

Question: Which mass density [3] does the source give for `CCCCOC(=O)CC` [butyl propanoate] here?
Answer: The mass density was 871.08 ± 0.96 kg/m3.

Question: What about the refractive index [4] of the same compound?
Answer: Its refractive index is 1.399 ± 0.001.

Question: What does the source list for `ClCCCCCl` [1,4-dichlorobutane] + CCCCOC=O?
Answer: mass density ([1]; x2 = 0.0582): 1119.16 ± 0.7 kg/m3; mass density ([1]; x2 = 0.1167): 1104.56 ± 0.75 kg/m3; mass density ([1]; x2 = 0.1724): 1090.7 ± 0.79 kg/m3; mass density ([1]; x2 = 0.2316): 1075.99 ± 0.84 kg/m3; mass density ([1]; x2 = 0.286): 1062.54 ± 0.88 kg/m3; mass density ([1]; x2 = 0.345): 1047.97 ± 0.92 kg/m3; mass density ([1]; x2 = 0.4055): 1033.06 ± 0.97 kg/m3; mass density ([1]; x2 = 0.522): 1004.48 ± 1.1 kg/m3; mass density ([1]; x2 = 0.5808): 990.11 ± 1.1 kg/m3; mass density ([1]; x2 = 0.6408): 975.5 ± 1.1 kg/m3; mass density ([1]; x2 = 0.6992): 961.32 ± 1.2 kg/m3; mass density ([1]; x2 = 0.76): 946.59 ± 1.2 kg/m3; mass density ([1]; x2 = 0.8183): 932.5 ± 1.3 kg/m3; mass density ([1]; x2 = 0.8774): 918.24 ± 1.3 kg/m3; mass density ([1]; x2 = 0.9363): 904.07 ± 1.4 kg/m3; excess molar enthalpy ([2]; x2 = 0.049): 0.00688 ± 0.000956 kcal/mol; excess molar enthalpy ([2]; x2 = 0.1112): 0.0112 ± 0.0011 kcal/mol; excess molar enthalpy ([2]; x2 = 0.1816): 0.0137 ± 0.00117 kcal/mol; excess molar enthalpy ([2]; x2 = 0.2472): 0.0151 ± 0.00122 kcal/mol; excess molar enthalpy ([2]; x2 = 0.3099): 0.0138 ± 0.00117 kcal/mol; excess molar enthalpy ([2]; x2 = 0.3701): 0.0111 ± 0.00108 kcal/mol; excess molar enthalpy ([2]; x2 = 0.4257): 0.00784 ± 0.00098 kcal/mol; excess molar enthalpy ([2]; x2 = 0.4725): 0.00366 ± 0.00086 kcal/mol; excess molar enthalpy ([2]; x2 = 0.5121): 7.17e-05 kcal/mol; excess molar enthalpy ([2]; x2 = 0.5471): -0.00237 ± 0.000813 kcal/mol; excess molar enthalpy ([2]; x2 = 0.5819): -0.00519 ± 0.000908 kcal/mol; excess molar enthalpy ([2]; x2 = 0.6245): -0.00827 ± 0.001 kcal/mol; excess molar enthalpy ([2]; x2 = 0.6718): -0.0104 ± 0.00108 kcal/mol; excess molar enthalpy ([2]; x2 = 0.7351): -0.0123 ± 0.00112 kcal/mol; excess molar enthalpy ([2]; x2 = 0.8039): -0.0108 ± 0.00108 kcal/mol; excess molar enthalpy ([2]; x2 = 0.8728): -0.00805 ± 0.001 kcal/mol; excess molar enthalpy ([2]; x2 = 0.9412): -0.00421 ± 0.000884 kcal/mol

Question: Which mass density ([1]; x2 = 0.0591) does the source give for `ClCCCCCCCl` [1,6-dichlorohexane] + CCCCOC(=O)CC here?
Answer: The mass density was 1052.23 ± 1.1 kg/m3.

Question: What about the mass density ([1]; x2 = 0.1161) of the same compound?
Answer: Its mass density is 1041.11 ± 1 kg/m3.

Question: What about the mass density ([1]; x2 = 0.1728) of the same compound?
Answer: Its mass density is 1030.03 ± 0.97 kg/m3.

Question: What about the mass density ([1]; x2 = 0.2284) of the same compound?
Answer: The mass density was 1019.22 ± 0.93 kg/m3.

Question: What about the mass density ([1]; x2 = 0.345) of the same compound?
Answer: Its mass density is 996.62 ± 0.85 kg/m3.

Question: And the mass density ([1]; x2 = 0.4083)?
Answer: Its mass density is 984.38 ± 0.81 kg/m3.

Question: And the mass density ([1]; x2 = 0.4668)?
Answer: Its mass density is 973.12 ± 0.78 kg/m3.

Question: What about the mass density ([1]; x2 = 0.5258) of the same compound?
Answer: Its mass density is 961.74 ± 0.74 kg/m3.

Question: And the mass density ([1]; x2 = 0.6403)?
Answer: Its mass density is 939.75 ± 0.68 kg/m3.

Question: And the mass density ([1]; x2 = 0.6994)?
Answer: Its mass density is 928.38 ± 0.66 kg/m3.

Question: And the mass density ([1]; x2 = 0.7645)?
Answer: The mass density was 915.95 ± 0.63 kg/m3.

Question: What about the mass density ([1]; x2 = 0.8173) of the same compound?
Answer: The mass density was 905.83 ± 0.61 kg/m3.

Question: And the mass density ([1]; x2 = 0.8835)?
Answer: Its mass density is 893.21 ± 0.58 kg/m3.

Question: And the mass density ([1]; x2 = 0.9423)?
Answer: Its mass density is 882.05 ± 0.56 kg/m3.
